Data on four molecules can be found in patent publication US10010614B2, “Derivatives of GLP-1 like peptides, and uses thereof” (Novo Nordisk A/S, priority 2013, dated 2018).

Test [1] concerns the target T1, human GLP-1 receptor (Homo sapiens, UniProt P43220).
T1 construct: expressed in transfected cells; host or cells: membranes prepared from BHK cells (parent line BHKTS13), clone FCW467-12A
Kind of test: In vitro potency, CRE luciferase reporter gene assay in BHK cells expressing the human GLP-1 receptor. The class given is cell-based. To be noted: whole cell reporter gene assay, 3 h incubation, no HSA, averages of at least two replicates. The method, then: The purpose of this example is to test the activity, or potency, of the GLP-1 derivatives in vitro. The in vitro potency is the measure of human GLP-1 receptor activation in a whole cell assay.
Semaglutide was included for comparison.
In vitro potency was determined by measuring the response of the human GLP-1 receptor in a reporter gene assay. The assay was performed in a stably transfected BHK cell line that expresses the human GLP-1 receptor and contains the DNA for the cAMP response element (CRE) coupled to a promoter and the gene for firefly luciferase (CRE luciferase). When the human GLP-1 receptor is activated it results in the production of cAMP, which in turn results in the luciferase protein being expressed. When assay incubation is completed the luciferase substrate (luciferin) is added and the enzyme converts luciferin to oxyluciferin to produce bioluminescence. The luminescence is measured as the readout for the assay.
The cells used in this assay (clone FCW467-12A/KZ10-1) were BHK cells with BHKTS13 as a parent cell line. The cells were derived from a clone (FCW467-12A) that expresses the human GLP-1 receptor and were established by further transfection with CRE luciferase to obtain the current clone.
The cells were cultured at 5% CO2 in Cell Culture Medium. They were aliquoted and stored in liquid nitrogen. Before each assay an aliquot is taken up and washed twice in PBS before being suspended at the desired concentration in the assay specific buffer. For 96-well plates the suspension was made to give a final concentration of 5×10^3 cells/well.
The following chemicals were used in the assay: Pluronic F-68 (10%) (Gibco 2404), human serum albumin (HSA) (Sigma A9511), ovalbumin (Sigma A5503), DMEM w/o phenol red (Gibco 11880-028), 1 M Hepes (Gibco 15630), Glutamax 100× (Gibco 35050) and steadylite plus (PerkinElmer 6016757).
Cell Culture Medium consisted of DMEM medium with 10% FBS (Fetal Bovine Serum; Invitrogen 16140-071), 1 mg/ml G418 (Invitrogen 15140-122), 240 nM MTX (methotrexate; Sigma M9929) and 1% pen/strep (penicillin/streptomycin; Invitrogen 15140-122).
Assay Medium consisted of DMEM w/o phenol red, 10 mM Hepes and 1× Glutamax. The Assay Buffer consisted of 2% ovalbumin and 0.2% Pluronic F-68 in Assay Medium.
1) Cell stocks were thawed in a 37° C. water bath.
2) Cells were washed three times in PBS.
3) The cells were counted and adjusted to 5×10^3 cells/50 μl (1×10^5 cells/ml) in Assay Medium. A 50 μl aliquot of cells was transferred to each well in the assay plate.
4) Stocks of the test compounds and reference compounds were diluted to a concentration of 0.2 μM in Assay Buffer. Compounds were diluted 10-fold to give the following concentrations: 2×10^−7 M, […]; 2×10^−9 M, 2×10^−10 M, 2×10^−11 M, 2×10^−12 M, 2×10^−13 M, and 2×10^−14 M. 5) A 50 μl aliquot of compound or blank was transferred from the dilution plate to the assay plate. Compounds were tested at the following final concentrations: 1×10^−7 M, 1×10^−8 M; 1×10^−9 M, 1×10^−10 M, 1×10^−11 M, 1×10^−12 M, 1×10^−13 M, and 1×10^−14 M. 6) The assay plate was incubated for 3 h in a 5% CO2 incubator at 37° C. 7) The assay plate was removed from the incubator and allowed to stand at room temperature for 15 min. 8) A 100 μl aliquot of steadylite plus reagent was added to each well of the assay plate (reagent was light sensitive). 9) Each assay plate was covered with aluminum foil to protect it from light and shaken for 30 min at room temperature. 10) Each assay plate was read in a Packard TopCount NXT instrument. Calculations and Results
The data from the TopCount instrument were transferred to GraphPad Prism software. The software performs a non-linear regression (log(agonist) vs response).
A minimum of two replicates was measured for each sample. The reported values are averages of the replicates.

Test [2] concerns the target T1, human GLP-1 receptor. Kind of test: GLP-1 receptor binding, competitive binding assay (125I-GLP-1, SPA) on isolated membranes.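 Further: test compounds added at a range of concentrations to membranes from cells expressing the human GLP-1 receptor, scored by displacement of labelled ligand, read with WGA SPA beads.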
Experimental: The purpose of this example is to test the receptor binding of the GLP-1 derivatives in vitro. The receptor binding is a measure of affinity of a derivative for the human GLP-1 receptor.
In this type of assay a labelled ligand (in this case ^125I-GLP-1) is bound to the receptor. Each derivative is added in a series of concentrations to isolated membranes containing the human GLP-1 receptor and displacement of the labelled ligand is monitored. The receptor binding is reported as the concentration at which half of the labelled ligand is displaced from the receptor, the IC50 value.
The following chemicals were used in the assay: Human serum albumin (HSA) (Sigma A1653), DMEM w/o phenol red (Gibco 11880-028), Pen/strep (Invitrogen 15140-122), G418 (Invitrogen 10131-027), 1 M Hepes (Gibco 15630), EDTA (Invitrogen 15575-038), PBS (Invitrogen 14190-094), fetal calf serum (Invitrogen 16140-071), EGTA, MgCl2 (Merck 1.05832.1000), Tween 20 (Amresco 0850C335), SPA particles (wheat germ agglutinin (WGA) SPA beads, Perkin Elmer RPNQ0001), [^125I]-GLP-1]-(7-36)NH2 (produced in-house), OptiPlate™-96 (Packard 6005290).
Buffer 1 consisted of 20 mM Na-HEPES plus 10 mM EDTA and pH was adjusted to 7.4. Buffer 2 consisted of 20 mM Na-HEPES plus 0.1 mM EDTA and pH was adjusted to 7.4. Assay buffer consisted of 50 mM HEPES supplemented with 5 mM EGTA, 5 mM MgCl2, 0.005% Tween 20 and pH was adjusted to 7.4. An 8% albumin stock consisted of HSA dissolved at 8% (w/v) in assay buffer. An 0.02% albumin stock consisted of HSA dissolved at 0.02% (w/v) in assay buffer.
The cells express the human GLP-1 receptor.
The cells were grown at 5% CO2 in DMEM, 10% fetal calf serum, 1% Pen/Strep (Penicillin/Streptomycin) and 1.0 mg/ml of the selection marker G418.
To make a membrane preparation the cells were grown to approximately 80% confluence. The cells were washed twice in phosphate-buffered saline and harvested. The cells were pelleted using a brief centrifugation and the cell pellet was kept on ice. The cell pellet was homogenised with ULTRA-THURRAX™ dispersing instrument for 20-30 seconds in a suitable amount of buffer 1 (e.g., 10 ml). The homogenate was centrifuged for 15 minutes. The pellet was re-suspended (homogenised) in 10 ml buffer 2 and centrifuged. This step was repeated once more. The resulting pellet was re-suspended in buffer 2 and the protein concentration was determined. The membranes were aliquoted and stored at minus 80° C.
For the receptor binding assay in the presence of low HSA (0.005%) 50 μl of the assay buffer was added to each well of an assay plate.
For the receptor binding assay in the presence of high HSA (2%) 50 μl of the 8% albumin stock was added to each well of an assay plate.
Cell membrane aliquots were thawed and diluted to their working concentration. Fifty μl were added to each well in the assay plate.
WGA SPA beads were suspended in assay buffer at 20 mg/ml. The suspension was diluted to 10 mg/ml in assay buffer just prior to addition to the assay plate. Fifty μl were added to each well in the assay plate.
The incubation was started by adding 25 μl of 480 pM solution of [^125I]-GLP-1]-(7-36)NH2 to each well of the assay plate. A 25 μl aliquot was reserved for measuring total counts/well.
The assay plate was incubated for 2 h at 30° C.
The assay plate was centrifuged for 10 min.
The assay plate was read in a Packard TopCount NXT instrument.
The data from the TopCount instrument were transferred to GraphPad Prism software. The software averaged the values for the replicates and performed a non-linear regression. IC50 values were calculated by the software and reported in nM.
The mark [3] stands for this setting: high serum albumin (2.0% HSA final assay concentration), read-out: High HSA IC50.
[4] abbreviates: low serum albumin (max. 0.001% final assay concentration), read-out: Low HSA IC50.
[5] abbreviates: High HSA IC50 (nM), high serum albumin (2.0% HSA final assay concentration).
The mark [6] stands for this setting: Low HSA IC50 (nM), low serum albumin (max. 0.001% final assay concentration).

Where two headings read alike, the source gives them in different places. Numbered stars: 1 amine (or outer) side, 2 acyl side, 3 side chain; on linkers, the order of the positions; unused ones are H or OH. Square brackets hold non-standard residues; d marks the D form. Side chains are listed from the residue outwards. Peptide text beside a SMILES is read from it. * marks the point of attachment. X2 = O=C(O)CCCCCCCCCCCCCCCCCCC(=O)NC[C@H]1CC[C@H](C(=O)N[C@@H](CCC(=O)NCCOCCOCCN*)C(=O)O)CC1; X4 = O=C(O)CCCCCCCCCCCCCCCCCCC(=O)N1CCC(C(=O)N[C@@H](CCC(=O)NCCCOCCOCCOCCCN*)C(=O)O)CC1; C20 diacid = O=C(O)CCCCCCCCCCCCCCCCCCC(=O)*; εLys = N[C@@H](CCCCN[*:1])C(=O)[*:2]; Suc = O=C(CCC(=O)[*:2])[*:1]; AEEA = NCCOCCOCC(=O)O; Aib = CC(C)(N)C(=O)O

T1 sequence (P43220 24-463): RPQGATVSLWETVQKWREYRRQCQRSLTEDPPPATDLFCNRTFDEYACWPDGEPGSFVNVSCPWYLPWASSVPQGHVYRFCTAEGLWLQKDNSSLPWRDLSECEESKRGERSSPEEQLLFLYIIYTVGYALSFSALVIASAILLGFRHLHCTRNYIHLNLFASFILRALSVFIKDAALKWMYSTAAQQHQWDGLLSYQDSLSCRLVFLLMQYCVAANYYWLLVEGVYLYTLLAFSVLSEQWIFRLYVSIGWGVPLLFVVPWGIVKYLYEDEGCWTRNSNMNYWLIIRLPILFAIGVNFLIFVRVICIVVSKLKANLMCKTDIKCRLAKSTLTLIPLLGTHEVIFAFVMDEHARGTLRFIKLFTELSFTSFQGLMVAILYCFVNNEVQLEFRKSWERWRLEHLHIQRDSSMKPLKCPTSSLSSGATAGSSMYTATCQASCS

As to `CC[C@H](C)[C@H](NC(=O)[C@H](Cc1ccccc1)NC(=O)[C@H](CCC(=O)O)NC(=O)[C@H](CCCNC(=N)N)NC(=O)[C@H](C)NC(=O)[C@H](C)NC(=O)[C@H](CCC(N)=O)NC(=O)[C@H](CCC(=O)O)NC(=O)[C@H](CCC(=O)O)NC(=O)[C@H](CC(C)C)NC(=O)[C@H](Cc1ccc(O)cc1)NC(=O)[C@H](CO)NC(=O)[C@H](CO)NC(=O)[C@@H](NC(=O)[C@H](CC(=O)O)NC(=O)[C@H](CO)NC(=O)[C@@H](NC(=O)[C@H](Cc1ccccc1)NC(=O)[C@@H](NC(=O)CNC(=O)[C@H](CCC(=O)O)NC(=O)C(C)(C)NC(=O)[C@@H](N)Cc1c[nH]cn1)[C@@H](C)O)[C@@H](C)O)C(C)C)C(=O)N[C@@H](C)C(=O)N[C@@H](Cc1c[nH]c2ccccc12)C(=O)N[C@@H](CC(C)C)C(=O)N[C@H](C(=O)N[C@@H](CCCNC(=N)N)C(=O)NCC(=O)N[C@@H](CCCNC(=N)N)C(=O)NCC(=O)N[C@@H](CCCCNC(=O)COCCOCCNC(=O)COCCOCCNC(=O)COCCOCCNC(=O)COCCOCCNC(=O)COCCOCCNC(=O)COCCOCCNC(=O)[C@@H](N)CCCCNC(=O)[C@@H](N)CCCCNC(=O)CCCCCCCCCCCCCCCCCCC(=O)O)C(=O)NCC(=O)NCC(=O)N[C@@H](CO)C(=O)N[C@@H](CCCCNC(=O)COCCOCCNC(=O)COCCOCCNC(=O)COCCOCCNC(=O)COCCOCCNC(=O)COCCOCCNC(=O)COCCOCCNC(=O)[C@@H](N)CCCCNC(=O)[C@@H](N)CCCCNC(=O)CCCCCCCCCCCCCCCCCCC(=O)O)C(=O)O)C(C)C` [Example 28] (H-H[Aib]EGTFTSDVSSYLEEQAAREFIAWLVRGRGK([AEEA-AEEA-AEEA-AEEA-AEEA-AEEA-εLys-εLys-C20 diacid])GGSK([AEEA-AEEA-AEEA-AEEA-AEEA-AEEA-εLys-εLys-C20 diacid])-OH; N-terminus and C-terminus assumed), the EC50 (commonly the midpoint of the concentration-response curve) at human GLP-1 receptor [1] was 0.0034 nM. Besides, the values for the IC50 on human GLP-1 receptor [2] (setting [3]) and at human GLP-1 receptor [2] (setting [4]) were 30 nM and 0.05 nM, respectively.

`CC[C@H](C)[C@H](NC(=O)[C@H](Cc1ccccc1)NC(=O)[C@H](CCC(=O)O)NC(=O)[C@H](CCCNC(=N)N)NC(=O)[C@H](C)NC(=O)[C@H](C)NC(=O)[C@H](CCC(N)=O)NC(=O)[C@H](CCC(=O)O)NC(=O)[C@H](CCC(=O)O)NC(=O)[C@H](CC(C)C)NC(=O)[C@H](Cc1ccc(O)cc1)NC(=O)[C@H](CO)NC(=O)[C@H](CO)NC(=O)[C@@H](NC(=O)[C@H](CC(=O)O)NC(=O)[C@H](CO)NC(=O)[C@@H](NC(=O)[C@H](Cc1ccccc1)NC(=O)[C@@H](NC(=O)CNC(=O)[C@H](CCC(=O)O)NC(=O)C(C)(C)NC(=O)[C@@H](N)Cc1c[nH]cn1)[C@@H](C)O)[C@@H](C)O)C(C)C)C(=O)N[C@@H](C)C(=O)N[C@@H](Cc1c[nH]c2ccccc12)C(=O)N[C@@H](CC(C)C)C(=O)N[C@H](C(=O)N[C@@H](CCCNC(=N)N)C(=O)NCC(=O)N[C@@H](CCCNC(=N)N)C(=O)NCC(=O)N[C@@H](CCCCNC(=O)COCCOCCNC(=O)COCCOCCNC(=O)COCCOCCNC(=O)COCCOCCNC(=O)[C@@H](N)CCCCNC(=O)[C@@H](N)CCCCNC(=O)CCCCCCCCCCCCCCCCCCC(=O)O)C(=O)NCC(=O)NCC(=O)N[C@@H](CO)C(=O)N[C@@H](CCCCNC(=O)COCCOCCNC(=O)COCCOCCNC(=O)COCCOCCNC(=O)COCCOCCNC(=O)[C@@H](N)CCCCNC(=O)[C@@H](N)CCCCNC(=O)CCCCCCCCCCCCCCCCCCC(=O)O)C(=O)O)C(C)C` [Example 25] (H-H[Aib]EGTFTSDVSSYLEEQAAREFIAWLVRGRGK([AEEA-AEEA-AEEA-AEEA-εLys-εLys-C20 diacid])GGSK([AEEA-AEEA-AEEA-AEEA-εLys-εLys-C20 diacid])-OH; N-terminus and C-terminus assumed) gave an EC50 on human GLP-1 receptor [1] of 0.01 nM. Further, the IC50 – broadly, the concentration needed to halve the response being measured – was 38 nM at human GLP-1 receptor [2] (setting [3]) and 0.22 nM on human GLP-1 receptor [2] (setting [4]).

`CC[C@H](C)[C@H](NC(=O)[C@H](Cc1ccccc1)NC(=O)[C@H](CCC(=O)O)NC(=O)[C@H](CCCNC(=N)N)NC(=O)[C@H](C)NC(=O)[C@H](C)NC(=O)[C@H](CCC(N)=O)NC(=O)[C@H](CCC(=O)O)NC(=O)[C@H](CCC(=O)O)NC(=O)[C@H](CC(C)C)NC(=O)[C@H](Cc1ccc(O)cc1)NC(=O)[C@H](CO)NC(=O)[C@H](CO)NC(=O)[C@@H](NC(=O)[C@H](CC(=O)O)NC(=O)[C@H](CO)NC(=O)[C@@H](NC(=O)[C@H](Cc1ccccc1)NC(=O)[C@@H](NC(=O)CNC(=O)[C@H](CCC(=O)O)NC(=O)C(C)(C)NC(=O)[C@@H](N)Cc1c[nH]cn1)[C@@H](C)O)[C@@H](C)O)C(C)C)C(=O)N[C@@H](C)C(=O)N[C@@H](Cc1c[nH]c2ccccc12)C(=O)N[C@@H](CC(C)C)C(=O)N[C@H](C(=O)N[C@@H](CCCNC(=N)N)C(=O)NCC(=O)N[C@@H](CCCNC(=N)N)C(=O)NCC(=O)N[C@@H](CCCCNC(=O)CCC(=O)NCCCOCCOCCOCCCNC(=O)CC[C@H](NC(=O)C1CCN(C(=O)CCCCCCCCCCCCCCCCCCC(=O)O)CC1)C(=O)O)C(=O)NCC(=O)NCC(=O)N[C@@H](CO)C(=O)N[C@@H](CCCCNC(=O)CCC(=O)NCCCOCCOCCOCCCNC(=O)CC[C@H](NC(=O)C1CCN(C(=O)CCCCCCCCCCCCCCCCCCC(=O)O)CC1)C(=O)O)C(=O)O)C(C)C` [Example 21] (H-H[Aib]EGTFTSDVSSYLEEQAAREFIAWLVRGRGK([Suc-X4])GGSK([Suc-X4])-OH; N-terminus and C-terminus assumed) registered a concentration giving a half-maximal response (EC50) at human GLP-1 receptor [1] of 0.019 nM. Besides, the IC50 came to 177 nM at human GLP-1 receptor [2] (setting [5]) and 1.3 nM on human GLP-1 receptor [2] (setting [6]).

`CC[C@H](C)[C@H](NC(=O)[C@H](Cc1ccccc1)NC(=O)[C@H](CCC(=O)O)NC(=O)[C@H](CCCNC(=N)N)NC(=O)[C@H](C)NC(=O)[C@H](C)NC(=O)[C@H](CCC(N)=O)NC(=O)[C@H](CCC(=O)O)NC(=O)[C@H](CCC(=O)O)NC(=O)[C@H](CC(C)C)NC(=O)[C@H](Cc1ccc(O)cc1)NC(=O)[C@H](CO)NC(=O)[C@H](CO)NC(=O)[C@@H](NC(=O)[C@H](CC(=O)O)NC(=O)[C@H](CO)NC(=O)[C@@H](NC(=O)[C@H](Cc1ccccc1)NC(=O)[C@@H](NC(=O)CNC(=O)[C@H](CCC(=O)O)NC(=O)C(C)(C)NC(=O)[C@@H](N)Cc1c[nH]cn1)[C@@H](C)O)[C@@H](C)O)C(C)C)C(=O)N[C@@H](C)C(=O)N[C@@H](Cc1c[nH]c2ccccc12)C(=O)N[C@@H](CC(C)C)C(=O)N[C@H](C(=O)N[C@@H](CCCNC(=N)N)C(=O)NCC(=O)N[C@@H](CCCNC(=N)N)C(=O)NCC(=O)N[C@@H](CCCCNC(=O)CCC(=O)NCCOCCOCCNC(=O)CC[C@H](NC(=O)[C@H]1CC[C@H](CNC(=O)CCCCCCCCCCCCCCCCCCC(=O)O)CC1)C(=O)O)C(=O)NCC(=O)NCC(=O)N[C@@H](CO)C(=O)N[C@@H](CCCCNC(=O)CCC(=O)NCCOCCOCCNC(=O)CC[C@H](NC(=O)[C@H]1CC[C@H](CNC(=O)CCCCCCCCCCCCCCCCCCC(=O)O)CC1)C(=O)O)C(=O)O)C(C)C` [Example 23] (H-H[Aib]EGTFTSDVSSYLEEQAAREFIAWLVRGRGK([Suc-X2])GGSK([Suc-X2])-OH) displayed an EC50 at human GLP-1 receptor [1] of 0.022 nM. Further, the IC50 on human GLP-1 receptor [2] (setting [5]) worked out at 201 nM; on human GLP-1 receptor [2] (setting [6]) it was 1.4 nM.
